The results in this text go back to patent US20240059671A1, “TYROSINE KINASE 2 (TYK2) DEGRADATION COMPOUNDS AND METHODS OF USE” (CULLGEN (SHANGHAI), INC., priority 2020, published 2024).

The target of this assay is TYK2 (Homo sapiens, UniProt P29597). Kind of assay: TYK2 protein degradation in MOLT-4 cells by immunoblotting. The format is cell-based. On the set-up: endogenous in cells; host or cells: MOLT-4. The note with it: MOLT-4 cells, 24 hours. As for the experimental part: MOLT-4 cells were treated with compounds at 0.5 and 5 μM concentrations for 24 hours.
MOLT-4 cells were treated with CPD-038, CPD-039, and CPD-040 at 0.04, 0.2, 1, and 5 μM concentrations for 24 hours.
MOLT-4 or NOMO-1 cells were cultured at 37° C. with 5% CO2 in RPMI 1640 Medium supplemented with 10% fetal bovine serum. Cells were authenticated using the short tandem repeat (STR) assays. Mycoplasma test results were negative.
Cultured cells were washed with cold PBS once and lysed in cold RIPA buffer supplemented with protease inhibitors and phosphatase inhibitors (Beyotime Biotechnology). The solutions were then incubated at 4° C. for 30 minutes with gentle agitation to fully lyse cells. Cell lysates were centrifuged at 13,000 rpm for 10 minutes at 4° C. and pellets were discarded. Total protein concentrations in the lysates were determined by BCA assays (Beyotime Biotechnology). Cell lysates were mixed with Laemmli loading buffer to 1× and heated at 99° C. for 5 min. Proteins were resolved on SDS-PAGE and visualized by chemiluminescence. Images were taken by a ChemiDoc MP Imaging system (Bio-Rad). Protein bands were quantitated using the accompanied software provided by Bio-Rad.
The percentage of TYK2 protein degradation of each compound at 0.5 and 5 μM determined in MOLT-4 cells as described in Methods.
For orientation: In western blotting, separated proteins are transferred to a membrane and probed.

TYK2, sequence (P29597 whole entry): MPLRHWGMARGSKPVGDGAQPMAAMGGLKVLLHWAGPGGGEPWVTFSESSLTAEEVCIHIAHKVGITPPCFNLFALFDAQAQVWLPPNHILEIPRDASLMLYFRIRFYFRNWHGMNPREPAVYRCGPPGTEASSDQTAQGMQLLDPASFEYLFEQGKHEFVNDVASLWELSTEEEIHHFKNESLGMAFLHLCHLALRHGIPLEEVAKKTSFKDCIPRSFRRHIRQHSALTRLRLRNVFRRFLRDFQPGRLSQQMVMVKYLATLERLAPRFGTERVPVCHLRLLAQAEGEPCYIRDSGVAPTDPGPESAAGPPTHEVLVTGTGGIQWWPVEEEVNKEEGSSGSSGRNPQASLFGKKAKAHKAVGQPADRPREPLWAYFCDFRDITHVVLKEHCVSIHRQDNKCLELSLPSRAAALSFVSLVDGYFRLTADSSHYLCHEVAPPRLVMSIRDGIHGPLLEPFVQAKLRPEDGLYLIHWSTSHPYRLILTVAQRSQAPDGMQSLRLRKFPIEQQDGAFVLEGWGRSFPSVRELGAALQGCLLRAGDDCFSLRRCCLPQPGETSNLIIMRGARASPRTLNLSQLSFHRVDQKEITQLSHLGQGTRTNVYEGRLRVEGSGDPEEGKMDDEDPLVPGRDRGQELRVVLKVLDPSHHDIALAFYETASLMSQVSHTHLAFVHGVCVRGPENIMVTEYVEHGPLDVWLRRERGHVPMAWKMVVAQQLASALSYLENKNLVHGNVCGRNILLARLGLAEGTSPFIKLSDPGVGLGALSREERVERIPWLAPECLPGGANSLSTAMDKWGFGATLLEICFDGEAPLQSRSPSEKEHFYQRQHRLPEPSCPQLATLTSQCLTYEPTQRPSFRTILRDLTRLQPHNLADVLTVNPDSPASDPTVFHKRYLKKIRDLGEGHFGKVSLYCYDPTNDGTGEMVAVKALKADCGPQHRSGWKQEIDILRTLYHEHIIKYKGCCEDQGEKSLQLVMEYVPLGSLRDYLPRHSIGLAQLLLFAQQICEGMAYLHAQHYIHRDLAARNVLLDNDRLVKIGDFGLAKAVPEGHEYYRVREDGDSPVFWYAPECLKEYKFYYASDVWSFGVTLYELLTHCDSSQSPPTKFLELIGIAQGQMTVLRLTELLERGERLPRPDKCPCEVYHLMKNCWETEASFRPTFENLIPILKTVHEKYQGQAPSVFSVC

As for `CNC(=O)c1nnc(NC(=O)C2CC2)cc1Nc1cccc(-c2ncn(CCNC(=O)CCNc3ccc4c(c3)C(=O)N(C3CCC(=O)NC3=O)C4=O)n2)c1OC` (centres unmarked) [CPD-014, 6-(Cyclopropanecarboxamido)-4-((3-(1-(2-(3-((2-(2,6-dioxopiperidin-3-yl)-1,3-dioxoisoindolin-5-yl)amino)propanamido)ethyl)-1H-1,2,4-triazol-3-yl)-2-methoxyphenyl)amino)-N-methylpyridazine-3-carboxamide], the “TYK2 Degradation (0.5 μM)” value is at most 20%. Still for that read-out and setting: the figure for `CNC(=O)c1nnc(NC(=O)C2CC2)cc1Nc1cccc(-c2ncn(CCNC(=O)CCCNc3ccc4c(c3)C(=O)N(C3CCC(=O)NC3=O)C4=O)n2)c1OC` (centres unmarked) [CPD-015, 6-(Cyclopropanecarboxamido)-4-((3-(1-(2-(4-((2-(2,6-dioxopiperidin-3-yl)-1,3-dioxoisoindolin-5-yl)amino)butanamido)ethyl)-1H-1,2,4-triazol-3-yl)-2-methoxyphenyl)amino)-N-methylpyridazine-3-carboxamide] is at most 20%; for `CNC(=O)c1nnc(NC(=O)C2CC2)cc1Nc1cccc(-c2ncn(CCNC(=O)CCCCNc3ccc4c(c3)C(=O)N(C3CCC(=O)NC3=O)C4=O)n2)c1OC` (centres unmarked) [CPD-016, 6-(Cyclopropanecarboxamido)-4-((3-(1-(2-(5-((2-(2,6-dioxopiperidin-3-yl)-1,3-dioxoisoindolin-5-yl)amino)pentanamido)ethyl)-1H-1,2,4-triazol-3-yl)-2-methoxyphenyl)amino)-N-methylpyridazine-3-carboxamide] it is at most 20%; for `CNC(=O)c1nnc(NC(=O)C2CC2)cc1Nc1cccc(-c2ncn(CCNC(=O)CCCCCCNc3ccc4c(c3)C(=O)N(C3CCC(=O)NC3=O)C4=O)n2)c1OC` (centres unmarked) [CPD-017, 6-(Cyclopropanecarboxamido)-4-((3-(1-(2-(7-((2-(2,6-dioxopiperidin-3-yl)-1,3-dioxoisoindolin-5-yl)amino)heptanamido)ethyl)-1H-1,2,4-triazol-3-yl)-2-methoxyphenyl)amino)-N-methylpyridazine-3-carboxamide] it is at most 20%.

With `CNC(=O)c1nnc(NC(=O)C2CC2)cc1Nc1cccc(-c2ncn(CCNC(=O)CCOCCNc3ccc4c(c3)C(=O)N(C3CCC(=O)NC3=O)C4=O)n2)c1OC` (centres unmarked) [CPD-018, 6-(Cyclopropanecarboxamido)-4-((3-(1-(2-(3-(2-((2-(2,6-dioxopiperidin-3-yl)-1,3-dioxoisoindolin-5-yl)amino)ethoxy)propanamido)ethyl)-1H-1,2,4-triazol-3-yl)-2-methoxyphenyl)amino)-N-methylpyridazine-3-carboxamide], the “TYK2 Degradation (0.5 μM)” value was at most 20%. On the same count and under the same terms, the figure for `CNC(=O)c1nnc(NC(=O)C2CC2)cc1Nc1cccc(-c2ncn(CCNC(=O)CCOCCOCCNc3ccc4c(c3)C(=O)N(C3CCC(=O)NC3=O)C4=O)n2)c1OC` (centres unmarked) [CPD-019, 6-(Cyclopropanecarboxamido)-4-((3-(1-(2-(3-(2-(2-((2-(2,6-dioxopiperidin-3-yl)-1,3-dioxoisoindolin-5-yl)amino)ethoxy)ethoxy)propanamido)ethyl)-1H-1,2,4-triazol-3-yl)-2-methoxyphenyl)amino)-N-methylpyridazine-3-carboxamide] is at most 20%. Still for that read-out and setting: the figure for `CNC(=O)c1nnc(NC(=O)C2CC2)cc1Nc1cccc(-c2ncn(CCNC(=O)CCOCCOCCOCCNc3ccc4c(c3)C(=O)N(C3CCC(=O)NC3=O)C4=O)n2)c1OC` (centres unmarked) [CPD-020, 6-(Cyclopropanecarboxamido)-4-((3-(1-(1-((2-(2,6-dioxopiperidin-3-yl)-1,3-dioxoisoindolin-5-yl)amino)-12-oxo-3,6,9-trioxa-13-azapentadecan-15-yl)-1H-1,2,4-triazol-3-yl)-2-methoxyphenyl)amino)-N-methylpyridazine-3-carboxamide] is at most 20%. In the case of `CNC(=O)c1nnc(NC(=O)C2CC2)cc1Nc1cccc(-c2ncn(CCNC(=O)CCOCCOCCOCCOCCNc3ccc4c(c3)C(=O)N(C3CCC(=O)NC3=O)C4=O)n2)c1OC` (centres unmarked) [CPD-021, 6-(Cyclopropanecarboxamido)-4-((3-(1-(1-((2-(2,6-dioxopiperidin-3-yl)-1,3-dioxoisoindolin-5-yl)amino)-15-oxo-3,6,9,12-tetraoxa-16-azaoctadecan-18-yl)-1H-1,2,4-triazol-3-yl)-2-methoxyphenyl)amino)-N-methylpyridazine-3-carboxamide], the “TYK2 Degradation (0.5 μM)” value is recorded as at most 20% and the “TYK2 Degradation (5 μM)” value is reported as at most 20%.

Consider `CNC(=O)c1nnc(NC(=O)C2CC2)cc1Nc1cccc(-c2ncn(CCNC(=O)CCOCCOCCOCCOCCOCCNc3ccc4c(c3)C(=O)N(C3CCC(=O)NC3=O)C4=O)n2)c1OC` (centres unmarked) [CPD-022, 6-(Cyclopropanecarboxamido)-4-((3-(1-(1-((2-(2,6-dioxopiperidin-3-yl)-1,3-dioxoisoindolin-5-yl)amino)-18-oxo-3,6,9,12,15-pentaoxa-19-azahenicosan-21-yl)-1H-1,2,4-triazol-3-yl)-2-methoxyphenyl)amino)-N-methylpyridazine-3-carboxamide], for which the “TYK2 Degradation (0.5 μM)” value was found to be 40% and the “TYK2 Degradation (5 μM)” value was at most 20%. For `CNC(=O)c1nnc(NC(=O)C2CC2)cc1Nc1cccc(-c2ncn(CCNC(=O)CCCCCNc3ccc4c(c3)C(=O)N(C3CCC(=O)NC3=O)C4=O)n2)c1OC` (centres unmarked) [CPD-023, 6-(Cyclopropanecarboxamido)-4-((3-(1-(2-(6-((2-(2,6-dioxopiperidin-3-yl)-1,3-dioxoisoindolin-5-yl)amino)hexanamido)ethyl)-1H-1,2,4-triazol-3-yl)-2-methoxyphenyl)amino)-N-methylpyridazine-3-carboxamide] the same measures were at most 20% and at most 20%. In the same order, the values of `CNC(=O)c1nnc(NC(=O)C2CC2)cc1Nc1cccc(-c2ncn(CCNC(=O)CCCCCCCNc3ccc4c(c3)C(=O)N(C3CCC(=O)NC3=O)C4=O)n2)c1OC` (centres unmarked) [CPD-024, 6-(Cyclopropanecarboxamido)-4-((3-(1-(2-(8-((2-(2,6-dioxopiperidin-3-yl)-1,3-dioxoisoindolin-5-yl)amino)octanamido)ethyl)-1H-1,2,4-triazol-3-yl)-2-methoxyphenyl)amino)-N-methylpyridazine-3-carboxamide] are at most 20% and 30%. In the same order, the values of `CNC(=O)c1nnc(NC(=O)CNC(=O)COCC(=O)N[C@H](C(=O)N2C[C@H](O)C[C@H]2C(=O)NCc2ccc(-c3scnc3C)cc2)C(C)(C)C)cc1Nc1cccc(-c2ncn(C)n2)c1OC` [CPD-025, 6-(2-(2-(2-(((S)-1-((2S,4R)-4-Hydroxy-2-((4-(4-methylthiazol-5-yl)benzyl)carbamoyl)pyrrolidin-1-yl)-3,3-dimethyl-1-oxobutan-2-yl)amino)-2-oxoethoxy)acetamido)acetamido)-4-((2-methoxy-3-(1-methyl-1H-1,2,4-triazol-3-yl)phenyl)amino)-N-methylpyridazine-3-carboxamide] are at most 20% and at most 20%.

With `CNC(=O)c1nnc(NC(=O)CNC(=O)CCOCCC(=O)N[C@H](C(=O)N2C[C@H](O)C[C@H]2C(=O)NCc2ccc(-c3scnc3C)cc2)C(C)(C)C)cc1Nc1cccc(-c2ncn(C)n2)c1OC` [CPD-026, 6-(2-(3-(3-(((S)-1-((2S,4R)-4-Hydroxy-2-((4-(4-methylthiazol-5-yl)benzyl)carbamoyl)pyrrolidin-1-yl)-3,3-dimethyl-1-oxobutan-2-yl)amino)-3-oxopropoxy)propanamido)acetamido)-4-((2-methoxy-3-(1-methyl-1H-1,2,4-triazol-3-yl)phenyl)amino)-N-methylpyridazine-3-carboxamide], the “TYK2 Degradation (0.5 μM)” value is reported as at most 20% and the “TYK2 Degradation (5 μM)” value is recorded as at most 20%. Turning to `CNC(=O)c1nnc(NC(=O)CNC(=O)COCCOCC(=O)N[C@H](C(=O)N2C[C@H](O)C[C@H]2C(=O)NCc2ccc(-c3scnc3C)cc2)C(C)(C)C)cc1Nc1cccc(-c2ncn(C)n2)c1OC` [CPD-027, 6-((S)-13-((2S,4R)-4-Hydroxy-2-((4-(4-methylthiazol-5-yl)benzyl)carbamoyl)pyrrolidine-1-carbonyl)-14,14-dimethyl-4,11-dioxo-6,9-dioxa-3,12-diazapentadecanamido)-4-((2-methoxy-3-(1-methyl-1H-1,2,4-triazol-3-yl)phenyl)amino)-N-methylpyridazine-3-carboxamide], the “TYK2 Degradation (0.5 μM)” value is recorded as at most 20% and the “TYK2 Degradation (5 μM)” value is reported as at most 20%. With `CNC(=O)c1nnc(NC(=O)CNC(=O)CCOCCOCCC(=O)N[C@H](C(=O)N2C[C@H](O)C[C@H]2C(=O)NCc2ccc(-c3scnc3C)cc2)C(C)(C)C)cc1Nc1cccc(-c2ncn(C)n2)c1OC` [CPD-028, 6-((S)-15-((2S,4R)-4-Hydroxy-2-((4-(4-methylthiazol-5-yl)benzyl)carbamoyl)pyrrolidine-1-carbonyl)-16,16-dimethyl-4,13-dioxo-7,10-dioxa-3,14-diazaheptadecanamido)-4-((2-methoxy-3-(1-methyl-1H-1,2,4-triazol-3-yl)phenyl)amino)-N-methylpyridazine-3-carboxamide], the “TYK2 Degradation (0.5 μM)” value is given as at most 20% and the “TYK2 Degradation (5 μM)” value was at most 20%.
